Measurements from ChEMBL document CHEMBL1629601, “In vitro susceptibility of field isolates of Leishmania donovani to Miltefosine and amphotericin B: correlation with sodium antimony gluconate susceptibility and implications for treatment in areas of endemicity” (2009).
In brackets after ≈: the same amount, converted by molar mass.

How the values were obtained:
Type in all cases: functional
Leishmania donovani [1] = assay: Antimicrobial activity against Leishmania donovani K132 amastigote
Leishmania donovani [2] = assay: Antimicrobial activity against Leishmania donovani K439 promastigote; settings: read-out: ED50 (the source's name)
Leishmania donovani [3] = assay: Antimicrobial activity against Leishmania donovani K149 amastigote
Leishmania donovani [4] = assay: Antimicrobial activity against Leishmania donovani K132 promastigote; settings: read-out: ED50 (the source's name)
Leishmania donovani [5] = assay: Antimicrobial activity against Leishmania donovani K516 amastigote
Leishmania donovani [6] = assay: Antimicrobial activity against Leishmania donovani K131 amastigote
Leishmania donovani [7] = assay: Antimicrobial activity against Leishmania donovani K251 promastigote; settings: read-out: ED50 (the source's name)
Leishmania donovani [8] = assay: Antimicrobial activity against Leishmania donovani K251 amastigote
Leishmania donovani [9] = assay: Antimicrobial activity against Leishmania donovani K509 amastigote
Leishmania donovani [10] = assay: Antimicrobial activity against Leishmania donovani LdAG83 amastigote
Leishmania donovani [11] = assay: Antimicrobial activity against Leishmania donovani K192 amastigote
Leishmania donovani [12] = assay: Antimicrobial activity against Leishmania donovani K216 amastigote
Leishmania donovani [13] = assay: Antimicrobial activity against Leishmania donovani K481 amastigote
Leishmania donovani [14] = assay: Antimicrobial activity against Leishmania donovani K498 promastigote; settings: read-out: ED50 (the source's name)
Leishmania donovani [15] = assay: Antimicrobial activity against Leishmania donovani K59 amastigote
Leishmania donovani [16] = assay: Antimicrobial activity against Leishmania donovani K111 promastigote; settings: read-out: ED50 (the source's name)
Leishmania donovani [17] = assay: Antimicrobial activity against Leishmania donovani K133 amastigote
Leishmania donovani [18] = assay: Antimicrobial activity against Leishmania donovani K135 amastigote
Leishmania donovani [19] = assay: Antimicrobial activity against Leishmania donovani K216 promastigote; settings: read-out: ED50 (the source's name)
Leishmania donovani [20] = assay: Antimicrobial activity against Leishmania donovani K135 promastigote; settings: read-out: ED50 (the source's name)
Leishmania donovani [21] = assay: Antimicrobial activity against Leishmania donovani K435 amastigote
Leishmania donovani [22] = assay: Antimicrobial activity against Leishmania donovani K80 amastigote
Leishmania donovani [23] = assay: Antimicrobial activity against Leishmania donovani K429 promastigote; settings: read-out: ED50 (the source's name)
Leishmania donovani [24] = assay: Antimicrobial activity against Leishmania donovani K429 amastigote
Leishmania donovani [25] = assay: Antimicrobial activity against Leishmania donovani K149 promastigote; settings: read-out: ED50 (the source's name)
Leishmania donovani [26] = assay: Antimicrobial activity against Leishmania donovani K498 amastigote
Leishmania donovani [27] = assay: Antimicrobial activity against Leishmania donovani LdAG83 promastigote; settings: read-out: ED50 (the source's name)
Leishmania donovani [28] = assay: Antimicrobial activity against Leishmania donovani K516 promastigote; settings: read-out: ED50 (the source's name)
Leishmania donovani [29] = assay: Antimicrobial activity against Leishmania donovani K481 promastigote; settings: read-out: ED50 (the source's name)
Leishmania donovani [30] = assay: Antimicrobial activity against Leishmania donovani K417 amastigote
Leishmania donovani [31] = assay: Antimicrobial activity against Leishmania donovani K439 amastigote
Leishmania donovani [32] = assay: Antimicrobial activity against Leishmania donovani K133 promastigote; settings: read-out: ED50 (the source's name)
Leishmania donovani [33] = assay: Antimicrobial activity against Leishmania donovani K435 promastigote; settings: read-out: ED50 (the source's name)
Leishmania donovani [34] = assay: Antimicrobial activity against Leishmania donovani K59 promastigote; settings: read-out: ED50 (the source's name)
Leishmania donovani [35] = assay: Antimicrobial activity against Leishmania donovani K80 promastigote; settings: read-out: ED50 (the source's name)
Leishmania donovani [36] = assay: Antimicrobial activity against Leishmania donovani K111 amastigote
Leishmania donovani [37] = assay: Antimicrobial activity against Leishmania donovani K192 promastigote; settings: read-out: ED50 (the source's name)
Leishmania donovani [38] = assay: Antimicrobial activity against Leishmania donovani K417 promastigote; settings: read-out: ED50 (the source's name)
Leishmania donovani [39] = assay: Antimicrobial activity against Leishmania donovani K131 promastigote; settings: read-out: ED50 (the source's name)
[40] = read-out: ED50 (the source's name)

## C[C@@H]1[C@H](O)[C@@H](C)/C=C/C=C/C=C/C=C/C=C/C=C/C=C/[C@H](O[C@@H]2O[C@H](C)[C@@H](O)[C@H](N)[C@@H]2O)C[C@@H]2O[C@](O)(C[C@@H](O)C[C@@H](O)[C@H](O)CC[C@@H](O)C[C@@H](O)CC(=O)O[C@H]1C)C[C@H](O)[C@H]2C(=O)O [AMPHOTERICIN B]
Leishmania donovani [1]; [40]
  EC50: 0.22 µg/mL (≈ 0.238 µM)
Leishmania donovani [2]
  EC50: 1.62 µg/mL (≈ 1.75 µM)
Leishmania donovani [3]; [40]
  EC50: 0.28 µg/mL (≈ 0.303 µM)
Leishmania donovani [4]
  EC50: 1.22 µg/mL (≈ 1.32 µM)
Leishmania donovani [5]; [40]
  EC50: 0.62 µg/mL (≈ 0.671 µM)
Leishmania donovani [6]; [40]
  EC50: 0.35 µg/mL (≈ 0.379 µM)
Leishmania donovani [7]
  EC50: 1.42 µg/mL (≈ 1.54 µM)
Leishmania donovani [8]; [40]
  EC50: 0.55 µg/mL (≈ 0.595 µM)
Leishmania donovani [9]; [40]
  EC50: 0.65 µg/mL (≈ 0.703 µM)
Leishmania donovani [10]; [40]
  EC50: 0.017 µg/mL (≈ 0.0184 µM)
Leishmania donovani [11]; [40]
  EC50: 0.67 µg/mL (≈ 0.725 µM)
Leishmania donovani [12]; [40]
  EC50: 0.25 µg/mL (≈ 0.271 µM)
Leishmania donovani [13]; [40]
  EC50: 0.55 µg/mL (≈ 0.595 µM)
Leishmania donovani [14]
  EC50: 1.16 µg/mL (≈ 1.26 µM)
Leishmania donovani [15]; [40]
  EC50: 0.18 µg/mL (≈ 0.195 µM)
Leishmania donovani [16]
  EC50: 1.02 µg/mL (≈ 1.1 µM)
Leishmania donovani [17]; [40]
  EC50: 0.21 µg/mL (≈ 0.227 µM)
Leishmania donovani [18]; [40]
  EC50: 0.25 µg/mL (≈ 0.271 µM)
Leishmania donovani [19]
  EC50: 0.52 µg/mL (≈ 0.563 µM)
Leishmania donovani [20]
  EC50: 0.31 µg/mL (≈ 0.335 µM)
Leishmania donovani [21]; [40]
  EC50: 0.17 µg/mL (≈ 0.184 µM)
Leishmania donovani [22]; [40]
  EC50: 0.18 µg/mL (≈ 0.195 µM)
Leishmania donovani [23]
  EC50: 1.34 µg/mL (≈ 1.45 µM)
Leishmania donovani [24]; [40]
  EC50: 0.37 µg/mL (≈ 0.4 µM)
Leishmania donovani [25]
  EC50: 1.46 µg/mL (≈ 1.58 µM)
Leishmania donovani [26]; [40]
  EC50: 0.54 µg/mL (≈ 0.584 µM)
Leishmania donovani [27]
  EC50: 0.023 µg/mL (≈ 0.0249 µM)
Leishmania donovani [28]
  EC50: 1.26 µg/mL (≈ 1.36 µM)
Leishmania donovani [29]
  EC50: 0.69 µg/mL (≈ 0.747 µM)
Leishmania donovani [30]; [40]
  EC50: 0.44 µg/mL (≈ 0.476 µM)
Leishmania donovani [31]; [40]
  EC50: 0.77 µg/mL (≈ 0.833 µM)
Leishmania donovani [32]
  EC50: 0.65 µg/mL (≈ 0.703 µM)
Leishmania donovani [33]
  EC50: 0.57 µg/mL (≈ 0.617 µM)
Leishmania donovani [34]
  EC50: 0.5 µg/mL (≈ 0.541 µM)
Leishmania donovani [35]
  EC50: 0.5 µg/mL (≈ 0.541 µM)
Leishmania donovani [36]; [40]
  EC50: 0.2 µg/mL (≈ 0.216 µM)
Leishmania donovani [37]
  EC50: 0.78 µg/mL (≈ 0.844 µM)
Leishmania donovani [38]
  EC50: 0.69 µg/mL (≈ 0.747 µM)
Leishmania donovani [39]
  EC50: 0.43 µg/mL (≈ 0.465 µM)

## D-gluconic acid 2,4:2',4'-O-[oxybis(oxidostibylidyne)]bis-trisodium salt nonahydrate
Leishmania donovani [1]
  ED50: 3.95 µg/mL
Leishmania donovani [3]
  ED50: 15.7 µg/mL
Leishmania donovani [5]
  ED50: 16.5 µg/mL
Leishmania donovani [6]
  ED50: 19.4 µg/mL
Leishmania donovani [8]
  ED50: 11.8 µg/mL
Leishmania donovani [9]
  ED50: 16.8 µg/mL
Leishmania donovani [10]
  ED50: 2.06 µg/mL
Leishmania donovani [11]
  ED50: 20.3 µg/mL
Leishmania donovani [12]
  ED50: 2.14 µg/mL
Leishmania donovani [13]
  ED50: 17.5 µg/mL
Leishmania donovani [15]
  ED50: 14.7 µg/mL
Leishmania donovani [17]
  ED50: 3.45 µg/mL
Leishmania donovani [18]
  ED50: 4.22 µg/mL
Leishmania donovani [21]
  ED50: 11.8 µg/mL
Leishmania donovani [22]
  ED50: 10.4 µg/mL
Leishmania donovani [24]
  ED50: 13.8 µg/mL
Leishmania donovani [26]
  ED50: 15.8 µg/mL
Leishmania donovani [30]
  ED50: 14.7 µg/mL
Leishmania donovani [31]
  ED50: 12.9 µg/mL
Leishmania donovani [36]
  ED50: 5.63 µg/mL
